Read-outs that look alike come from different tables or passages of the source.
Assays:
[1] = tested on: T1, G6PD-L-6PGL (fusion with linker); conditions: read-out: G6PD-L-6PGL, 100 mM Tris-HCl pH 8.0, 10 mM MgCl2, 25 °C, G6PD domain
T1 construct: gene ZWF1

[2] = tested on: T2, G6PD-6PGL (linker-less fusion); conditions: read-out: G6PD-6PGL, 100 mM Tris-HCl pH 8.0, 10 mM MgCl2, 25 °C, G6PD domain
T2 construct: gene ZWF1

purified protein = substrate: NC(=O)c1ccc[n+]([C@@H]2O[C@H](COP(=O)(O)OP(=O)(O)OC[C@H]3O[C@@H](n4cnc5c(N)ncnc54)[C@H](OP(=O)(O)O)[C@@H]3O)[C@@H](O)[C@H]2O)c1; assay: purified protein; conditions: G6P held constant, 100 mM Tris-HCl pH 8.0, 10 mM MgCl2, 25 °C

For O=P(O)(O)OC[C@H]1OC(O)[C@H](O)[C@@H](O)[C@@H]1O (stereo partly drawn) [glucose 6‐phosphate], the Km ([1]; NADP+ held constant) was 2.3 ± 0.2 µM and the Km ([2]; NADP+ held constant) was 0.6 µM.

NC(=O)c1ccc[n+]([C@@H]2O[C@H](COP(=O)(O)OP(=O)(O)OC[C@H]3O[C@@H](n4cnc5c(N)ncnc54)[C@H](OP(=O)(O)O)[C@@H]3O)[C@@H](O)[C@H]2O)c1 [NADP^+] showed a Km ([1]; G6P held constant) of 5.6 ± 0.2 µM and a Km ([2]; G6P held constant) of 2.6 ± 0.4 µM.

B1: ScG6PD (G6PD, ZWF1) (Saccharomyces cerevisiae S288C) (protein)
chain: MSEGPVKFEKNTVISVFGASGDLAKKKTFPALFGLFREGYLDPSTKIFGYARSKLSMEEDLKSRVLPHLKKPHGEADDSKVEQFFKMVSYISGNYDTDEGFDELRTQIEKFEKSANVDVPHRLFYLALPPSVFLTVAKQIKSRVYAENGITRVIVEKPFGHDLASARELQKNLGPLFKEEELYRIDHYLGKELVKNLLVLRFGNQFLNASWNRDNIQSVQISFKERFGTEGRGGYFDSIGIIRDVMQNHLLQIMTLLTMERPVSFDPESIRDEKVKVLKAVAPIDTDDVLLGQYGKSEDGSKPAYVDDDTVDKDSKCVTFAAMTFNIENERWEGVPIMMRAGKALNESKVEIRLQYKAVASGVFKDIPNNELVIRVQPDAAVYLKFNAKTPGLSNATQVTDLNLTYASRYQDFWIPEAYEVLIRDALLGDHSNFVRDDELDISWGIFTPLLKHIERPDGPTPEIYPYGSRGPKGLKEYMQKHKYVMPEKHPYAWPVTKPEDTKDN
With B1 the Km (purified protein) was 0.6 ± 0.1 µM.

B2: ScG6PD (G6PD, ZWF1) (Saccharomyces cerevisiae S288C; N403D) (protein)
chain: MSEGPVKFEKNTVISVFGASGDLAKKKTFPALFGLFREGYLDPSTKIFGYARSKLSMEEDLKSRVLPHLKKPHGEADDSKVEQFFKMVSYISGNYDTDEGFDELRTQIEKFEKSANVDVPHRLFYLALPPSVFLTVAKQIKSRVYAENGITRVIVEKPFGHDLASARELQKNLGPLFKEEELYRIDHYLGKELVKNLLVLRFGNQFLNASWNRDNIQSVQISFKERFGTEGRGGYFDSIGIIRDVMQNHLLQIMTLLTMERPVSFDPESIRDEKVKVLKAVAPIDTDDVLLGQYGKSEDGSKPAYVDDDTVDKDSKCVTFAAMTFNIENERWEGVPIMMRAGKALNESKVEIRLQYKAVASGVFKDIPNNELVIRVQPDAAVYLKFNAKTPGLSNATQVTDLDLTYASRYQDFWIPEAYEVLIRDALLGDHSNFVRDDELDISWGIFTPLLKHIERPDGPTPEIYPYGSRGPKGLKEYMQKHKYVMPEKHPYAWPVTKPEDTKDN
B2 gave a Km (purified protein) of 0.8 ± 0.1 µM.
